{"source": "ChEMBL document CHEMBL4270538", "about": "“Targeting prohibitin with small molecules to promote melanogenesis and apoptosis in melanoma cells” (Eur J Med Chem, 2018)", "key": {"[1]": {"molecular_target": "Prohibitin-2 (Homo sapiens) (UniProt Q99623)", "sequence (Q99623 whole entry)": "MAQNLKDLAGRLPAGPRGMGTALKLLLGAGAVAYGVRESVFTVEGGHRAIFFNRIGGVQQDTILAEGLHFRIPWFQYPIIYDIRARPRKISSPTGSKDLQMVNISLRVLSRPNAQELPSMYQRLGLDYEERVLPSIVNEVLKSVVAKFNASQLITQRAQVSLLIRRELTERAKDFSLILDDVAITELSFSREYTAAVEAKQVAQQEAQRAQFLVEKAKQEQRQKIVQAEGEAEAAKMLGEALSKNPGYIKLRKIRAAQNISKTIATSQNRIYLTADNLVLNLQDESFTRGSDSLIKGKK", "assay": "Binding affinity to PHB2 in human HBL cells assessed as upregulation of tyrosinase protein expression at 1 to 10 uM after 24 hrs by Western blot analysis", "type": "cell-based"}, "LNCaP [2]": {"test_system": "LNCaP", "assay": "Inhibition of cell proliferation in human LNCAP cells at 1 uM after 72 hrs by MTS assay relative to control", "type": "functional"}, "HBL [3]": {"test_system": "HBL", "assay": "Inhibition of cell proliferation in human HBL cells at 1 uM after 72 hrs by MTS assay relative to control", "type": "functional"}, "HT-29 [4]": {"test_system": "HT-29", "assay": "Inhibition of cell proliferation in human HT-29 cells at 10 uM after 72 hrs by MTS assay relative to control", "type": "functional", "conditions": "HT-29, 72 h"}, "PC-3 [5]": {"test_system": "PC-3", "assay": "Inhibition of cell proliferation in human PC3 cells at 1 uM after 72 hrs by MTS assay relative to control", "type": "functional", "conditions": "PC-3, 72 h"}, "[6]": {"molecular_target": "Prohibitin-2 (Homo sapiens) (UniProt Q99623)", "assay": "Binding affinity to PHB2 in human HBL cells assessed as upregulation of MITF protein expression at 1 to 10 uM after 24 hrs by Western blot analysis", "type": "cell-based"}, "[7]": {"molecular_target": "T1, Prohibitin 1 (Homo sapiens) (UniProt P35232)", "T1 sequence (whole entry)": "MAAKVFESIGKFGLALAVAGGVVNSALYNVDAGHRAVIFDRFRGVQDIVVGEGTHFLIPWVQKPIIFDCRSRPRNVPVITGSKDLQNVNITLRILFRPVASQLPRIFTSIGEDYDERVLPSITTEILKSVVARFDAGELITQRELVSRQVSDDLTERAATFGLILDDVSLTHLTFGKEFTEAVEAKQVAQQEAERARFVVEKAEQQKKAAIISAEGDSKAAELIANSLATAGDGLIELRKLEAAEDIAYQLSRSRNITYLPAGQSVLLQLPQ", "assay": "Downregulation of PHB1 in human HBL cells at 1 to 10 uM after 24 hrs by Western blot analysis", "type": "cell-based"}, "HL-60 [8]": {"test_system": "HL-60", "assay": "Inhibition of cell proliferation in human HL60 cells at 1 uM after 72 hrs by MTS assay relative to control", "type": "functional", "conditions": "HL-60, 72 h"}, "[9]": {"molecular_target": "Prohibitin-2 (Homo sapiens) (UniProt Q99623)", "assay": "Binding affinity to PHB2 in human HBL cells assessed as upregulation of ERK phosphorylation at 1 to 10 uM after 24 hrs by Western blot analysis", "type": "cell-based"}, "HBL [10]": {"test_system": "HBL", "assay": "Inhibition of cell proliferation in human HBL cells at 10 uM after 72 hrs by MTS assay relative to control", "type": "functional"}, "KB [11]": {"test_system": "KB", "assay": "Inhibition of cell proliferation in human KB cells after 72 hrs by MTS assay", "type": "functional, cell-based"}, "KB [12]": {"test_system": "KB", "assay": "Inhibition of cell proliferation in human KB cells at 1 uM after 72 hrs by MTS assay relative to control", "type": "functional"}, "MCF7 [13]": {"test_system": "MCF7", "assay": "Inhibition of cell proliferation in human MCF7 cells at 1 uM after 72 hrs by MTS assay relative to control", "type": "functional", "conditions": "MCF7, 72 h"}, "[14]": {"molecular_target": "RAC-alpha serine/threonine-protein kinase (Homo sapiens) (UniProt P31749)", "sequence (P31749 whole entry)": "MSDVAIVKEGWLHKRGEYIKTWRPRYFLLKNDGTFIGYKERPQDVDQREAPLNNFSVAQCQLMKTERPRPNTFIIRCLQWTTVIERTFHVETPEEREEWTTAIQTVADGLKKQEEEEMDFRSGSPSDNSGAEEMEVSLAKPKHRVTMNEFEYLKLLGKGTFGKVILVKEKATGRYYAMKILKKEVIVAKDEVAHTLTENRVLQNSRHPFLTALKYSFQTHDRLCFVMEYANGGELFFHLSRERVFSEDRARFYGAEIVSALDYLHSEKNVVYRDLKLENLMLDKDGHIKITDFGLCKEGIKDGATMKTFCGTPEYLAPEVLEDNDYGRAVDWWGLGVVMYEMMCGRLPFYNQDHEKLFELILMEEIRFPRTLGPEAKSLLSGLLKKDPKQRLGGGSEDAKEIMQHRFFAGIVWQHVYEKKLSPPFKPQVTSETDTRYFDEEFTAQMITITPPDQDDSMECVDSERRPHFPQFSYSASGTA", "assay": "Inhibition of Akt phosphorylation in human HBL cells at 1 to 10 uM after 24 hrs by Western blot analysis", "type": "cell-based"}, "[15]": {"molecular_target": "Prohibitin-2 (Homo sapiens) (UniProt Q99623)", "assay": "Induction of PHB2-mediated melanogenesis in human HBL cells assessed as pigmentation at 1 uM after 10 days relative to control", "type": "cell-based"}, "HL-60 [16]": {"test_system": "HL-60", "assay": "Inhibition of cell proliferation in human HL60 cells at 10 uM after 72 hrs by MTS assay relative to control", "type": "functional", "conditions": "HL-60, 72 h"}, "HT-29 [17]": {"test_system": "HT-29", "assay": "Inhibition of cell proliferation in human HT-29 cells at 1 uM after 72 hrs by MTS assay relative to control", "type": "functional", "conditions": "HT-29, 72 h"}, "KB [18]": {"test_system": "KB", "assay": "Inhibition of cell proliferation in human KB cells at 10 uM after 72 hrs by MTS assay relative to control", "type": "functional"}, "MCF7 [19]": {"test_system": "MCF7", "assay": "Inhibition of cell proliferation in human MCF7 cells at 10 uM after 72 hrs by MTS assay relative to control", "type": "functional", "conditions": "MCF7, 72 h"}, "HCT-116 [20]": {"test_system": "HCT-116", "assay": "Inhibition of cell proliferation in human HCT116 cells at 1 uM after 72 hrs by MTS assay relative to control", "type": "functional", "conditions": "HCT-116, 72 h"}, "[21]": {"molecular_target": "Prohibitin-2 (Homo sapiens) (UniProt Q99623)", "assay": "Induction of PHB2-mediated melanogenesis in human HBL cells assessed as pigmentation at 10 uM after 10 days relative to control", "type": "cell-based"}, "HCT-116 [22]": {"test_system": "HCT-116", "assay": "Inhibition of cell proliferation in human HCT116 cells at 10 uM after 72 hrs by MTS assay relative to control", "type": "functional", "conditions": "HCT-116, 72 h"}, "HL-60 [23]": {"test_system": "HL-60", "assay": "Inhibition of cell proliferation in human HL60 cells after 72 hrs by MTS assay", "type": "functional, cell-based", "conditions": "HL-60, 72 h"}, "PC-3 [24]": {"test_system": "PC-3", "assay": "Inhibition of cell proliferation in human PC3 cells at 10 uM after 72 hrs by MTS assay relative to control", "type": "functional", "conditions": "PC-3, 72 h"}, "LNCaP [25]": {"test_system": "LNCaP", "assay": "Inhibition of cell proliferation in human LNCAP cells at 10 uM after 72 hrs by MTS assay relative to control", "type": "functional"}, "[26]": {"assay": "Inhibition of cell proliferation in human EPC cells at 1 uM after 72 hrs by MTS assay relative to control", "type": "functional"}, "[27]": {"assay": "Inhibition of cell proliferation in human EPC cells at 10 uM after 72 hrs by MTS assay relative to control", "type": "functional"}, "[28]": {"molecular_target": "Prohibitin-2 (Homo sapiens) (UniProt Q99623)", "assay": "Binding affinity to PHB2 in human HBL cells assessed as LC3-2 accumulation at 1 to 10 uM after 24 hrs by Western blot analysis", "type": "cell-based"}}, "note": "Activity calls are given as the source filed them. The calls are words filed in the database; no cut-off is given here.", "data": [{"molecule": "NCCOCCOCCNc1nc(NCc2cccc(F)c2)nc(Oc2c(F)c(F)c(F)c(F)c2F)n1", "values": [{"measurement": "Activity", "setting": "[1]", "result": "Active"}, {"measurement": "inhibition at 1 µM", "setting": "LNCaP [2]", "result": 11, "unit": "%"}, {"measurement": "inhibition at 1 µM", "setting": "HBL [3]", "result": 9, "unit": "%"}, {"measurement": "inhibition at 10 µM", "setting": "HT-29 [4]", "result": 20, "unit": "%"}, {"measurement": "inhibition at 1 µM", "setting": "PC-3 [5]", "result": 15, "unit": "%"}, {"measurement": "Activity", "setting": "[6]", "result": "Active"}, {"measurement": "Activity", "setting": "[7]", "result": "Active"}, {"measurement": "inhibition at 1 µM", "setting": "HL-60 [8]", "result": 31, "unit": "%"}, {"measurement": "Activity", "setting": "[9]", "result": "Active"}, {"measurement": "inhibition at 10 µM", "setting": "HBL [10]", "result": 18, "unit": "%"}, {"measurement": "IC50", "setting": "KB [11]", "result": 33, "unit": "µM"}, {"measurement": "inhibition at 1 µM", "setting": "KB [12]", "result": 29, "unit": "%"}, {"measurement": "inhibition at 1 µM", "setting": "MCF7 [13]", "result": 11, "unit": "%"}, {"measurement": "inhibition", "setting": "[14]", "result": "Active"}, {"measurement": "fold change (FC)", "setting": "[15]", "result": 1.05}, {"measurement": "inhibition at 10 µM", "setting": "HL-60 [16]", "result": 59, "unit": "%"}, {"measurement": "inhibition at 1 µM", "setting": "HT-29 [17]", "result": 12, "unit": "%"}, {"measurement": "inhibition at 10 µM", "setting": "KB [18]", "result": 89, "unit": "%"}, {"measurement": "inhibition at 10 µM", "setting": "MCF7 [19]", "result": 27, "unit": "%"}, {"measurement": "inhibition at 1 µM", "setting": "HCT-116 [20]", "result": 10, "unit": "%"}, {"measurement": "fold change (FC)", "setting": "[21]", "result": 1.25}, {"measurement": "inhibition at 10 µM", "setting": "HCT-116 [22]", "result": 36, "unit": "%"}, {"measurement": "IC50", "setting": "HL-60 [23]", "result": 15, "unit": "µM"}, {"measurement": "inhibition at 10 µM", "setting": "PC-3 [24]", "result": 52, "unit": "%"}, {"measurement": "inhibition at 10 µM", "setting": "LNCaP [25]", "result": 32, "unit": "%"}, {"measurement": "inhibition at 1 µM", "setting": "[26]", "result": 27, "unit": "%"}, {"measurement": "inhibition at 10 µM", "setting": "[27]", "result": 58, "unit": "%"}, {"measurement": "Activity", "setting": "[28]", "result": "Active"}]}]}
